Experimental data as given in ChEMBL document CHEMBL2380306 (Bioorg Med Chem Lett, 2013).
Values after ≈ are worked out from the molar mass of the structure shown.

Key:
[1] = physchem; conditions: buffer, pH 7.4
[2] = Oral bioavailability in Wistar-Han rat at 5 mg/kg; assay type: ADME, organism-based; conditions: in vivo
[3] = Apparent permeability across MDCK2 cells; assay type: ADME, cell-based, Canis lupus familiaris, MDCK-II; conditions: dog, MDCK
[4] = Aqueous kinetic solubility of the compound at pH 6.5; assay type: physicochemical; conditions: read-out: Kinetic_solubility
[5] = Oral bioavailability in Beagle dog at 4 mg/kg; assay type: ADME, organism-based, Canis lupus familiaris; conditions: in vivo
[6] = Drug excretion in Wistar-Han rat bile at 5 mg/kg, iv; assay type: ADME, organism-based; set-up: dose 5 mg/kg, route intravenous; conditions: read-out: Drug excretion
[7] = Volume of distribution at steady state in Wistar-Han rat at 1 mg/kg, iv and 50 mg/kg, po; assay type: ADME, organism-based; conditions: in vivo, read-out: Vdss
[8] = Oral bioavailability in Beagle dog at 5 mg/kg; assay type: ADME, organism-based, Canis lupus familiaris; conditions: in vivo
[9] = Apparent permeability across human Caco2 cells at pH 6.5; assay type: ADME, cell-based; conditions: Caco-2, pH 6.5
[10] = Oral bioavailability in Wistar-Han rat at 50 mg/kg; assay type: ADME, organism-based; conditions: in vivo
[11] = Apparent permeability across human Caco2 cells at pH 7.4; assay type: ADME, cell-based; conditions: Caco-2, pH 7.4
[12] = Volume of distribution at steady state in Beagle dog at 0.5 mg/kg, iv and 5 mg/kg, po; assay type: ADME, organism-based, Canis lupus familiaris; conditions: in vivo, read-out: Vdss

Compound | logD [1] | Papp [3] [×10⁻⁶ cm/s] | further results
CCC(Oc1ccc(-n2cc(C(F)(F)F)cn2)cc1)c1ccc(C(=O)NCCC(=O)O)cc1 (racemic) | 1.9 |  | 
CCC[C@@H](Oc1cc(C)c(-n2cc(C(F)(F)F)cn2)c(C)c1)c1ccc(C(=O)NCCC(=O)O)cc1 | 2.7 |  | 
CC(C)CC(Oc1ccc(-n2cc(C(F)(F)F)cn2)cc1)c1ccc(C(=O)NCCC(=O)O)cc1 (racemic) | 3.2 |  | 
CCCC(Oc1ccc(-n2cc(C#N)cn2)cc1)c1ccc(C(=O)NCCC(=O)O)cc1 (racemic) | 1.2 |  | 
CCCC(Oc1ccc(-n2cc3ccccc3n2)cc1)c1ccc(C(=O)NCCC(=O)O)cc1 (single isomer, unassigned) |  | 2.2 | bioavailability [2]: 3%
O=C(O)CCNC(=O)c1ccc(C(Oc2ccc(-n3cc(C(F)(F)F)cn3)cc2)C2CCCC2)cc1 (racemic) | 3.3 |  | 
CCCC(Oc1ccc(-n2cnc(C(F)(F)F)c2)cc1)c1ccc(C(=O)NCCC(=O)O)cc1 (racemic) |  | 2.3 | 
CCCC(Oc1cnc(-n2cc(C(F)(F)F)cn2)nc1)c1ccc(C(=O)NCCC(=O)O)cc1 (racemic) | 1.5 |  | 
CCCC(Nc1ccc(-n2cc(C(F)(F)F)cn2)cn1)c1ccc(C(=O)NCCC(=O)O)cc1 (racemic) | 1.3 | 0.8 | 
CCCC(Oc1ccc(-n2cc(C(F)(F)F)cn2)c(C)c1)c1ccc(C(=O)NCCC(=O)O)cc1 (racemic) | 2.6 |  | 
CCCC(Nc1ccc(-n2cnc(C(F)(F)F)c2)cc1)c1ccc(C(=O)NCCC(=O)O)cc1 (racemic) | 1.3 | 0.6 | solubility kinetic [4]: 350 µM (≈ 166 µg/mL)
O=C(O)CCNC(=O)c1ccc(C(Oc2ccc(-n3cc(C(F)(F)F)cn3)cc2)C2CCC2)cc1 (racemic) | 2.6 |  | 
CCCC(Nc1ccc(-n2cc(C(F)(F)F)cn2)nc1)c1ccc(C(=O)NCCC(=O)O)cc1 (racemic) | 2.1 | 4.6 | 
CCCC(Oc1ccc(-n2cc(C(F)(F)F)cn2)nc1)c1ccc(C(=O)NCCC(=O)O)cc1 (racemic) | 2.6 | 3.4 | 
CCC[C@H](c1ccc(C(=O)NCCC(=O)O)cc1)[C@H](c1ccc(Cl)cc1)c1c[nH]c2c(F)cc(C)cc12 [MK-3577] |  |  | bioavailability [2]: 7%; solubility kinetic [4]: 23 µM (≈ 12 µg/mL); bioavailability [5]: 30%
CCCC(Oc1ccc(-n2cc(C(=O)N(C)C)cn2)cc1)c1ccc(C(=O)NCCC(=O)O)cc1 (racemic) | 0.5 |  | 
CC(C)C(Oc1ccc(-n2cc(C(F)(F)F)cn2)cc1)c1ccc(C(=O)NCCC(=O)O)cc1 (racemic) | 2.6 |  | 
CCCC(Oc1ccc(-n2cc(C(F)(F)F)cn2)cc1)c1ccc(C(=O)NCCC(=O)O)cc1 (single isomer, unassigned) |  |  | bioavailability [2]: 60%

Compound | logD [1] | Papp [3] [×10⁻⁶ cm/s] | further results
O=C(O)CCNC(=O)c1ccc(C(Oc2ccc(-n3cc(C(F)(F)F)cn3)cc2)C2CC2)cc1 (racemic) | 1.7 |  | 
CCCC(Oc1ccc(-n2cc3c(n2)CCCC3)cc1)c1ccc(C(=O)NCCC(=O)O)cc1 (racemic) | 2.7 |  | 
CCCC(Nc1cc(C)c(-n2cc(C(F)(F)F)cn2)c(C)c1)c1ccc(C(=O)NCCC(=O)O)cc1 (racemic) | 2.2 | 2.7 | 
CCCC(Oc1ccc(-n2cc(C(F)(F)F)cn2)cc1)c1ccc(C(=O)NCCC(=O)O)cc1 (racemic) | 2.4 | 3.1 | solubility kinetic [4]: 400 µM (≈ 190 µg/mL)
CCCC(Oc1cc(C)c(-n2cc(C(F)(F)F)cn2)c(C)c1)c1ccc(C(=O)NCCC(=O)O)cc1 (racemic) | 2.6 |  | 
CCCC(Oc1ccc(-n2cc(OC)cn2)cc1)c1ccc(C(=O)NCCC(=O)O)cc1 (racemic) | 1.4 |  | 
CCCC(Oc1ccc(-n2cc(C(F)(F)F)c(C)n2)cc1)c1ccc(C(=O)NCCC(=O)O)cc1 (racemic) | 2.8 |  | 
CCCC(Nc1ccc(-n2cc(C(F)(F)F)cn2)cc1)c1ccc(C(=O)NCCC(=O)O)cc1 (racemic) | 1.9 | 4 | solubility kinetic [4]: 350 µM (≈ 166 µg/mL)
CCCC(Oc1ccc(-n2cccn2)cc1)c1ccc(C(=O)NCCC(=O)O)cc1 (racemic) | 1.7 |  | 
CCCC(Oc1ccc(-n2cc(Cl)cn2)cc1)c1ccc(C(=O)NCCC(=O)O)cc1 (racemic) | 2.6 |  | solubility kinetic [4]: 70 µM (≈ 30.9 µg/mL)
CCCC(Nc1ccc(-n2cnc(C(F)(F)F)c2)cc1)c1ccc(C(=O)NCCC(=O)O)cc1 (single isomer, unassigned) |  |  | dose excreted [6]: 57%
CCCC(Oc1ccc(-n2cc(F)cn2)cc1)c1ccc(C(=O)NCCC(=O)O)cc1 (racemic) | 2 |  | 
CCCC(Nc1cnc(-n2cc(C(F)(F)F)cn2)nc1)c1ccc(C(=O)NCCC(=O)O)cc1 (racemic) | 1.3 | 0.8 | solubility kinetic [4]: 380 µM (≈ 181 µg/mL)
CC(C)(C)C(Oc1ccc(-n2cc(C(F)(F)F)cn2)cc1)c1ccc(C(=O)NCCC(=O)O)cc1 (racemic) | 3.7 |  | 
CCCC(Oc1ccc(-n2cc(C)cn2)cc1)c1ccc(C(=O)NCCC(=O)O)cc1 (racemic) | 2.1 |  | 
CCCC(Oc1ccc(-n2cc3ccccc3n2)cc1)c1ccc(C(=O)NCCC(=O)O)cc1 (racemic) | 2.5 |  | 
CCC[C@H](Oc1cc(C)c(-n2cc(C(F)(F)F)cn2)c(C)c1)c1ccc(C(=O)NCCC(=O)O)cc1 [PF-06291874] | 2.5 | 3.6 | Vd [7]: 0.4 L/kg; bioavailability [8]: 100%; Papp [9]: 30 ×10⁻⁶ cm/s; bioavailability [10]: 100%; Papp [11]: 8.5 ×10⁻⁶ cm/s; Vd [12]: 0.31 L/kg
